Tested on: mycohide sheets (mycelium crusts); browning by polyphenol oxidases (PPOs)
Test: Visual assessment of browning reduction in mycohide (mycelium) sheets/crusts treated with chelating agent
Conditions: for reduction of surface browning (FIGS. 5-6): 1 mM and 5 mM chelator, plasticized mycohide, dried samples, 15% ALE fatliquor dip, EDTA compared with EGTA
Experimental: In some embodiments, full sized cotton sheets are treated as defined by four groups: 1) plasticization without any treatment, 2) EDTA treatment only after harvesting sheets (5 mM EDTA 14 in water added on top of mycelia layer after harvest and gently massaged; then plasticize this section in glycerin/water solution), 3) EDTA treatment only during plasticization (plasticize in glycerin/water solution 40%/60% glycerin to water with EDTA at 5 mM), and/or 4) EDTA treatment on both harvested sheets and during plasticization (see above for conditions).

Row | SMILES | reduction of surface browning (FIGS. 5-6) | reduction of browning, crusts after fatliquoring, wet state (FIG. 9) (1 mM EDTA in water, 70 C for 0.5 hour first, vs control (no EDTA)) | reduction of browning, crusts after fatliquoring, wet state (FIG. 9) (5 mM EDTA, 70 C heating step, vs 1 mM EDTA) | reduction of browning, crusts after fatliquoring, dry state (FIG. 10) (5 mM vs 1 mM EDTA, with or without 70 C (0.5 hour) heating step) | color uniformity of mycelium sheets (EDTA treated sheets vs heat treatment with or without EDTA (FIGS. 16-18)) | browning after EDTA added at different process steps (FIG. 20A, 20B) (full sized cotton sheets, 5 mM EDTA and 16 mM NaOH after harvest and/or during plasticization, varied fat liquor solution conditions) | optimum concentration to achieve browning reduction (mycelium sheets, concentrations of EDTA and EGTA optimized) | effect of adding EDTA during tanning (D&S) (sheets previously treated with EDTA during harvest or plasticization (FIG. 18A, 18B))
1 | O=C(O)CN(CCOCCOCCN(CC(=O)O)CC(=O)O)CC(=O)O [EGTA, egtazic acid] | may be effectively applied |  |  |  |  |  |  | 
2 | O=C(O)CN(CCN(CC(=O)O)CC(=O)O)CC(=O)O [EDTA, ethylenediaminetetraacetic acid] | achieves greater reductions in browning | more effective at reducing browning than a control group | even greater reductions in browning | not more effective than a lower concentration of EDTA at reducing browning | best color uniformity | observed decrease in browning | 5 mM | added whitening effect

Reference: US20230146699A1, “EDTA System for Reducing Browning in Mycohide Materials” (MycoWorks, Inc., priority 2021, published 2023)
